Measurements: patent US4997835A, “Substituted 2-acylpyridine-α-(N)-hetarlyhydrazones and medicaments containing the same” (priority 1987, dated 1991)
Converted amounts (≈) assume the structure as drawn. Read-outs that look alike come from different tables or passages of the source.

Key:
[1] = test system: Mycobacterium tuberculosis H 37 RV; assay: Minimum inhibiting concentration, M. tuberculosis H37RV; format: cell-based; settings: M. tub. H37RV; for MIC: Mycobacterium tuberculosis
Description: The minimum inhibiting concentration of the commercially available and inventive substances given in Table 2 was determined according to the known standard process ("Methods for sensitivity testing of bacterial infectious germs", DIN 58940, part 5).
The determination was carried out on the following bacterial cultures:
2. Mycobacterium tuberculosis H 37 RV, FIB 2-85 JS
For culturing the bacterial cultures use was made of nutrient substrates according to Gottsacker and Lowenstein Jensen and culture media according to Lockemann or Dubos-Davis (cf. "Detection processes for mycobacteria from test material, III, culture medium formulations for culturing tuberculosis bacteria", 1978, Publisher: Deutsches Zentralkomitee zur Bekampfung der Tuberculose, Poppenhusenstrasse 14c, 2000 Hamburg 60).
In each case 5×10^-3 to 5×10^-5 mg, based on the wet weight, of the mycobacterial strains were incubated in 2 ml of culture fluid (Lockemann +0.5 wt/vol. % bovine serum albumen fraction 5) at 31° C. with a graded concentration of the particular inhibitor (dilution series). The culture tubes were read off after 8 to 15 days, as a function of the bacterial strain.
The MIC is the inhibitor concentration in μMol/l at which no propagation of the sewn cells is observed.

[2] = test system: Mycobacterium lufu; assay: Minimum inhibiting concentration, M. lufu L 209; format: cell-based; settings: for MIC: Mycobacterium lufu
[3] = test system: M. leprae; assay: Propagation of M. leprae in mouse paws; format: in vivo
Description: The therapeutic action was determined as a reduction of the number of acid-resistant bacteria in the mouse paw according to C. C. Shepard, J. Experim. Met., 112, p. 445, 1960.
It is possible to detect the synergistic effect of the combinations, even under in vivo conditions.

[4] = mouse, in vivo
Description: (§1) The acute toxicity after a single administration of PH 22, pyridine-2-aldehyde-thiosemicarbazone (Py-2-TSC), as well as Conteben (thiacetazone, 4-acetylaminobenzaldehyde-thiosemicarbazone) was determined according to H. J. Hapke, Toxikologie fur Veterinarmediziner, F. Enke Verlag, Stuttgart 1975. The test animals used were Wistar rats and NMRI white mice.

[5] = test system: M. leprae; assay: In vitro propagation of M. leprae, thymidine incorporation; format: cell-based; settings: Mycobacterium leprae, read-out: % Reduction Thymidine incorporation; for inhibition of growth at 50000 µg/mL: 50 mg/ml; for inhibition of growth at 100000 µg/mL: 100 mg/ml
Description: The inhibiting action was determined as a reaction of the thymidine absorption and the ATP content in M. Leprae suspensions, in the manner described by A. M. Dhople, Med. Sci. Res., 15, p.

[6] = test system: Mycobacterium smegmatis ATCC 607; assay: Minimum inhibiting concentration, M. smegmatis ATCC 607; format: cell-based; settings: for MIC: Mycolicibacterium smegmatis
[7] = test system: Indochina W-2 (parasitic malaria strain); assay: Growth of malaria strain Indochina W-2; format: cell-based; settings: for IC90: read-out: I90
Description: (§2) Determination of the semimaximum inhibiting concentration (I50) of typical representatives of the inventive compounds for the growth of parasitic malaria strains:
(§3) The determination took place according to the standard process (cf. WHO determination process).
(§4) The process according to Example 35 was repeated with the difference that the semimaximum inhibiting concentration of combinations of the inventive compound PH 22 with (2), (3) inhibitors of dihydrofolic acid reductase, (4) inhibitors of folate synthase and dihydrofolic acid reductase and (5), (6) inhibitors of DNA-synthesis were determined.

[8] = test system: Mycobacterium marinum SN 1254; assay: Minimum inhibiting concentration, M. marinum SN1254; format: cell-based
[9] = test system: Sierra Leone D-6 (parasitic malaria strain); assay: Growth of malaria strain Sierra Leone D-6; format: cell-based; settings: for IC90: read-out: I90
Description: as §2, §3, §4

[10] = test system: Mycobacterium avium SN 304; assay: Minimum inhibiting concentration, M. avium SN 304; format: cell-based
[11] = test system: Mycobacterium avium Patient Strain (Birk); assay: Minimum inhibiting concentration, M. avium Patient Strain (Birk); format: cell-based; settings: for MIC: Mycobacterium avium, read-out: Minimum inhibiting concentration
[12] = test system: lymphatic leukaemia P388; settings: C. Pellerano et al, Il Farmaco 1985; cited from earlier work
[13] = in vivo; settings: sc
Description: as §1

[14] = test system: human mammary tumour cell line MDA-MB231; assay: Inhibition of cellnumber increase; format: cell-based; settings: MDA-MB-231, read-out: 50% Inhibition of cellnumber increase, I50
Description: (§5) The semimaximum inhibition of cellnumber increase and thymidine incorporation into DNA was determined on the […], human mammary tumour cell line MDA-MB231 (cf. H. D. Soule et al, J. Nat. Cancer Inst., 51, p.1409, 1973) according to the method described by H. Seidenberger, G. Kranzfelder, S. Wappes, H. Schonenberger, W. Beck and M. Girth, Arch. Pharm. 314, 955, 1981 and M. Lippman, M. E. Monaco and G. Bolan, Cancer Res. 37, 1901, 1977.

[15] = test system: human mammary tumour cell line MDA-MB231; assay: Inhibition of thymidine incorporation into DNA; format: cell-based; settings: MDA-MB-231, read-out: 50% Inhibition of thymidine incorporation
Description: as §5

[16] = K. C. Agrawal et al, Biochem. Pharmacol. 1974; cited from earlier work
[17] = cited from earlier work
[18] = two months in feed, DDS 0.0001%, Rifampicin 0.001%, K-130 0.01%, Brodimoprim 0.01%, PH 22-26 0.05%
[19] = ATCC607, M. smegm. ATCC 607, read-out: Minimum inhibiting concentration
[20] = M. marin. SN1254, read-out: Minimum inhibiting concentration
[21] = SN304, M. avium SN 304, read-out: Minimum inhibiting concentration
[22] = read-out: IC50 in the case of combinations

Row | Structure (SMILES) | MIC [1] [µM] | MIC [2] [µM] | MIC [6, 19] [µM] | IC50 ([7]; read-out: I50) [nM] | IC90 [7] [nM] | MIC [8, 20] [µM] | IC50 ([9]; read-out: I50) [nM] | IC90 [9] [nM] | MIC ([11]; M. avium Patient str.) [µM] | IC50 [14] [nM] | IC50 [15] [nM] | other results
1 | Clc1cc(NN=Cc2ccccn2)ncn1 [PH 22-26, pyridine-2-aldehyde-6'-chloro-4'-pyrimidylhydrazone] | 6.2 (≈ 1.45 µg/mL) | 1.3 (≈ 0.304 µg/mL) | 25.7 (≈ 6.01 µg/mL) | 3500 | 6200 | 12.9 (≈ 3.01 µg/mL) | 2000 | 3000 | – | – | – | % Inhibition of propagation of M. leprae in mouse paws ([3]; 0.1% in feed, 4 months): 40%; M. leprae/paw, treated mice ([3]; 0.1% in feed, 4 months (control 0.468)): 0.283 × 10^6; % Inhibition of propagation of M. leprae in mouse paws ([3]; 0.1% in feed, 6.5 months): 69%; % Inhibition of propagation of M. leprae in mouse paws ([3]; 0.1% in feed, 8.5 months): 77%; M. leprae/paw, treated mice ([3]; 0.1% in feed, 8.5 months (control 2.978)): 0.684 × 10^6; % Inhibition of propagation of M. leprae in mouse paws ([3]; 0.1% in feed, 12 months): 74%; M. leprae/paw, treated mice ([3]; 0.1% in feed, 12 months (control 3.682)): 0.945 × 10^6; % Inhibition of propagation of M. leprae in mouse paws [3, 18]: 0%; toxic effects [4]: No toxic effects were observed; inhibition of growth at 50000 µg/mL [5]: 30%; inhibition of growth at 100000 µg/mL [5]: 48%
2 | CO[C@H]1/C=C/O[C@@]2(C)Oc3c(C)c(O)c4c(O)c(c(/C=N/N5CCN(C)CC5)c(O)c4c3C2=O)NC(=O)/C(C)=C\C=C\[C@H](C)[C@H](O)[C@@H](C)[C@@H](O)[C@@H](C)[C@H](OC(C)=O)[C@@H]1C [Rifampicin] | – | – | – | – | – | – | – | – | 5 (≈ 4.11 µg/mL) | – | – | MIC [10, 21]: 39 µM (≈ 32.1 µg/mL); % Inhibition of propagation of M. leprae in mouse paws [3, 18]: 19%; inhibition of growth at 50000 µg/mL [5]: 2%; inhibition of growth at 100000 µg/mL [5]: 0%
3 | NC[C@H]1O[C@H](O[C@H]2[C@H](O)[C@@H](O[C@H]3O[C@H](CO)[C@@H](O)[C@H](N)[C@H]3O)[C@H](N)C[C@@H]2N)[C@H](O)[C@@H](O)[C@@H]1O [Kanamycin, reference compound] | – | – | – | – | – | – | – | – | – | – | – | MIC ([10]; SN304, read-out: Minimum inhibiting concentration): 33 µM (≈ 16 µg/mL); MIC [11]: 17 µM (≈ 8.24 µg/mL)
4 | CC(=NNc1ccccn1)c1ccccn1 [PH 22-2, 2-acetylpyridine-2'-pyridylhydrazone] | 48 (≈ 10.2 µg/mL) | 33 (≈ 7 µg/mL) | 24 (≈ 5.09 µg/mL) | – | – | 28 (≈ 5.94 µg/mL) | – | – | 132 (≈ 28 µg/mL) | – | – | in vivo treatment of lymphatic leukaemia P388 [12]: ineffective
5 | C(=NNc1ccccn1)c1ccccn1 [PH 22, pyridine-2-aldehyde-2'-pyridylhydrazone] | 97 (≈ 19.2 µg/mL) | 32 (≈ 6.34 µg/mL) | 20 (≈ 3.96 µg/mL) | 2000 | 2500 | 77 (≈ 15.3 µg/mL) | 300 | 1300 | 29 (≈ 5.75 µg/mL) | 151 | 118 | LD50 ([13]; rat): > 2000 mg/kg; MIC [10, 21]: 30 µM (≈ 5.95 µg/mL); IC50 [7, 22]: 0.39 µg/mL; IC50 [9, 22]: 0.0556 µg/mL
6 | NC(=S)NN=Cc1ccc(O)cn1 [5-hydroxypyridine-2-(carbox)-aldehyde-thiosemicarbazone] | – | – | – | – | – | – | – | – | – | – | – | gastrointestinal toxicity [16]: serious gastrointestinal toxicity
7 | C(=NNc1ccc2ccccc2n1)c1ccccn1 [PQ 22, pyridine-2-aldehyde-2'-quinolylhydrazone] | 28 (≈ 6.95 µg/mL) | 10 (≈ 2.48 µg/mL) | 21 (≈ 5.21 µg/mL) | 1100 | 1700 | 12 (≈ 2.98 µg/mL) | 1500 | 2000 | – | 321 | 157 | MIC [10, 21]: 24 µM (≈ 5.96 µg/mL)
8 | NC(=NNc1ccccn1)c1ccccn1 [PH 22-12, pyridine-2-carboxylic acid 2'-pyridyl-amidrazone] | – | – | – | 6300 | 41000 | – | 1500 | 4300 | – | 460 | 330 | –
9 | CC(=O)Nc1ccc(C=NNC(N)=S)cc1 [Conteben, 4-acetylaminobenzaldehyde-thiosemicarbazone, reference compound] | 4 (≈ 0.945 µg/mL) | 339 (≈ 80.1 µg/mL) | – | – | – | – | – | – | 35 (≈ 8.27 µg/mL) | – | – | LD50 ([17]; Mouse, p.o., Comptes Rendus Soc. Biol. 1310 (1950)): 950 mg/kg body weight; LD50 ([17]; Mouse, subc., J. Pharm. Pharmacol. 2, 764 (1950)): 1000-2000 mg/kg body weight
10 | CCC(=NNc1nncc2ccccc12)c1ccccn1 [PH 22-25, ethyl-2-pyridylketone-1'-phthalazinylhydrazine] | 36 (≈ 9.98 µg/mL) | 2.7 (≈ 0.749 µg/mL) | 10.8 (≈ 3 µg/mL) | 400 | 700 | 101 (≈ 28 µg/mL) | 300 | 450 | – | 194 | 104 | –
11 | NC(=S)NN=Cc1ccccn1 [Py-2-TSC, pyridine-2-aldehyde-thiosemicarbazone, reference compound] | – | 40 (≈ 7.21 µg/mL) | – | – | – | – | – | – | – | – | – | LD50 ([13]; Rat, subc., read-out: LD50): 30 mg/kg; LD50 ([17]; Mouse i.p., Cancer Res. 25, 1454 (1965)): 40 mg/kg body weight
12 | [H]/N=C(/N)N[C@H]1[C@H](O)[C@@H](O)[C@H](O[C@@H]2O[C@@H](C)[C@](O)(C=O)[C@H]2O[C@@H]2O[C@@H](CO)[C@H](O)[C@@H](O)[C@@H]2NC)[C@@H](N/C(N)=N\[H])[C@@H]1O [Streptomycin] | – | – | – | – | – | – | – | – | – | – | – | MIC [10, 21]: 55 µM (≈ 32 µg/mL)
13 | CC(=NN(c1ccccn1)c1ccc2ccccc2n1)c1ccccn1 [PH 22-4, 2-acetylpyridine-2'-pyridyl-2'-quinolylhydrazone] | – | – | – | – | – | – | – | – | – | – | – | Minimum inhibiting concentration [1]: 4,8 μM/1; Minimum inhibiting concentration [2]: 6,7 μM/1; Minimum inhibiting concentration ([6]; M. smegm. ATCC 607): 15 μM/1; in vivo treatment of lymphatic leukaemia P388 [12]: ineffective; Minimum inhibiting concentration ([11]; M. avium Patient str.): 58 μM/1
14 | c1ccc(C(=NNc2ccc3ccccc3n2)c2ccccn2)cc1 [PH 22-15, 2-benzoylpyridine-2'-quinolylhydrazone] | 0.97 (≈ 0.315 µg/mL) | 1.2 (≈ 0.389 µg/mL) | 3.1 (≈ 1.01 µg/mL) | – | – | 4.6 (≈ 1.49 µg/mL) | – | – | 18.5 (≈ 6 µg/mL) | 1530 | 570 | –
15 | Cc1ccnc(C=NNc2ccccn2)c1 [PH 22-7, 4-methyl-pyridine-2-aldehyde-2'-pyridylhydrazone] | 113 (≈ 24 µg/mL) | 57 (≈ 12.1 µg/mL) | – | – | – | – | – | – | – | 278 | 159 | MIC ([6]; ATCC607, read-out: Minimum inhibiting concentration): 113 µM (≈ 24 µg/mL); MIC ([8]; SN1254, read-out: Minimum inhibiting concentration): 113 µM (≈ 24 µg/mL)
16 | c1ccc(C(=NNc2ccccn2)c2ccccn2)cc1 [PH 22-9, 2-benzoyl pyridine-2'-pyridylhydrazone] | 13 (≈ 3.57 µg/mL) | 5.5 (≈ 1.51 µg/mL) | 36.5 (≈ 10 µg/mL) | 1500 | 5300 | 18.3 (≈ 5.02 µg/mL) | 1800 | 2200 | 73 (≈ 20 µg/mL) | 97 | 89 | in vivo treatment of lymphatic leukaemia P388 [12]: ineffective
